Assay results from patent publication US20020025940A1, “Methods and compositions for sensitive and rapid, functional identification of genomic polynucleotides and use for cellular assays in drug discovery” (Aurora Biosciences Corporation, priority 1997, published 2002).

Assays:
Type in all cases: cell-based, human
[1] = test system: induced BLEC Jurkat clones; assay: Characterization of induced BLEC Jurkat clones, change in 460/530 ratio; conditions: PHA 10 microgram/ml, Thaps 1 microM, PMA 8 nM, Anti-CD3 2 microgram/ml
Excerpt: These clones represent cells in which the trapping construct had integrated into a gene up regulated by PHA (T-cell) activation. Thus, these cells report the transcriptional activation of a gene upon cellular activation. Individual clones were identified and isolated by FACS using CCF2/AM to detect beta-lactamase activity. This clone isolation method, the induced sorting paradigm, used three sequential and independent stimulation and sorting protocols. […] These control cells were all green.
These isolated clones were expanded and tested for PHA inducibility by microscopic inspection with and without PHA stimulation in the presence of CCF2/AM. A total of fifty-five PHA inducible clones were identified using this procedure. The PHA inducibility for these clones ranged from a 1.5 to 40 fold change in the 460/530 ratio as compared to unstimulated control cells. Genomic Southern analysis using a DNA probe encoding beta-lactamase established that these clones represented 34 independent stable vector integration events. A list of clones obtained by the methods of the present invention and their characteristics is provided below in Table 6 and Table 7.
In addition to PHA inducible clones, Phobol 12-myristate 13-acetate (PMA) (Calbiochem), Thapsigargin (Thaps) (Calbiochem), and PMA+Thaps inducible clones were isolated using the general procedure set forth above using the indicated inducer rather than PHA. PMA is a specific activator of PKC (protein kinase C) and Thaps is a specific activator of intracellular calcium ion release (Thaps). These clones were isolated using three rounds of FACS using the general procedures described for the PHA inducible clones in Example 5. In such instances, other stimulants were substituted for PHA. PMA was provided at 8 nM, Thaps was provided at 1 microM. When these two stimulants were combined, their concentration was not changed. […] By using varied selection conditions, it is possible to isolate functionally distinct clones downstream of the desired signaling target.
Table 7 and Table 8 provide data similar to that provided in Table 5 for all of the clones obtained by the methods of Examples 5 to 7.

[2] = test system: BLEC Jurkat clones; assay: Specificity of activated BLEC Jurkat clones, relative beta-lactamase activity; conditions: PMA 8 nM, Thaps 1 microM, CsA 100 nM, PHA 10 microgram/ml
Excerpt: (§1) Isolated clones from PHA-induced (Example 6) and PHA-repressed (Example 7) procedures described above were characterized to determine the specificity of their modulation and time required for induction or repression. Clones were stimulated with multiple activators or inhibitors over a one to twenty-four hour time interval.
(§2) In this study, PMA, which is a PKC activator, Thapsigargin which increases intracellular calcium, PHA which activates the T-cell receptor pathway, and cyclosporin A which is a clinically approved immunosuppressant that inhibits the Ca^2+ dependent phosphates calcineurin were investigated for their ability to modulate beta-lactamase expression in PHA induced and repressed BLEC clones.

[3] = test system: clone C2 (3×NFAT response element linked to beta-lactamase, M1 muscurinic receptor); assay: Relative beta-lactamase activity of control clone C2; conditions: PMA 8 nM, Thaps 1 microM, CsA 100 nM, PHA 10 microgram/ml
Excerpt: as §1, §2

[4] = test system: J389PT14/pcDNA3; assay: Beta-lactamase expression in control cell line J389PTI4/pcDNA3; conditions: 30 μM Carbachol, 10 nM PHA, 6 hours, unstimulated = 1
Experimental: For example, a calcium-sensitive clone was transfected with a Gq-type GPCR by electroporation. Cells from clone J389PT14 were transfected by electroporation with a plasmid (pcDNA3 (Invitrogen) or pcDNA3-M1 (pcDNA3 that can operably express M1 receptor) to make cell lines J389PTI4/pcDNA3 and J389PTI4/pcDNA3-Ml). […] Thus, the J389PTI4/pcDNA3 cell is a control cell. […] These cells were contacted with CCF-2 dye for another 90 minutes. The 460/530 ratio changes were measured in a Cytoflour (Series 4000 Model) (Perceptive Biosystems) fluorescence plate reader and correspond to reporter gene expression.

phytohemaglutinin [PHA]
Change in 460/530 ratio in the indicated clone by the following activator ([1]; clone J83PI1): 3-4
Change in 460/530 ratio in the indicated clone by the following activator ([1]; clone J83PI2): 8
Change in 460/530 ratio in the indicated clone by the following activator ([1]; clone J83PI3): 5-6
Change in 460/530 ratio in the indicated clone by the following activator ([1]; clone J83PI4): 34
Change in 460/530 ratio in the indicated clone by the following activator ([1]; clone J83PI6): 6-7
Change in 460/530 ratio in the indicated clone by the following activator ([1]; clone J83PI7): 2
Change in 460/530 ratio in the indicated clone by the following activator ([1]; clone J83PI8): 4-5
Change in 460/530 ratio in the indicated clone by the following activator ([1]; clone J83PI9): 6
Change in 460/530 ratio in the indicated clone by the following activator ([1]; clone J83PI13): 2-3
Change in 460/530 ratio in the indicated clone by the following activator ([1]; clone J83PI14): 2
Change in 460/530 ratio in the indicated clone by the following activator ([1]; clone J83PI15): 3-4
Change in 460/530 ratio in the indicated clone by the following activator ([1]; clone J83PI16): 3-4
Change in 460/530 ratio in the indicated clone by the following activator ([1]; clone J83PI18): 5-6
Change in 460/530 ratio in the indicated clone by the following activator ([1]; clone J83PI19): 5-6
Change in 460/530 ratio in the indicated clone by the following activator ([1]; clone J97PI1): 3-4
Change in 460/530 ratio in the indicated clone by the following activator ([1]; clone J97PI2): 2-3
Change in 460/530 ratio in the indicated clone by the following activator ([1]; clone J97PI3): 1-2
Change in 460/530 ratio in the indicated clone by the following activator ([1]; clone J97PI4): 1-2
Change in 460/530 ratio in the indicated clone by the following activator ([1]; clone J97PI6): 3-4
Change in 460/530 ratio in the indicated clone by the following activator ([1]; clone J97PI7): 3-4
Change in 460/530 ratio in the indicated clone by the following activator ([1]; clone J97PI8): 2.5-3
Change in 460/530 ratio in the indicated clone by the following activator ([1]; clone J97PI9): 2-3
Change in 460/530 ratio in the indicated clone by the following activator ([1]; clone J97PI10): 3-4
Change in 460/530 ratio in the indicated clone by the following activator ([1]; clone J97PI11): 3-4
Change in 460/530 ratio in the indicated clone by the following activator ([1]; clone J97PI12): 3-4
Change in 460/530 ratio in the indicated clone by the following activator ([1]; clone J97PI13): 2-3
Change in 460/530 ratio in the indicated clone by the following activator ([1]; clone J97PI14): 4-5
Change in 460/530 ratio in the indicated clone by the following activator ([1]; clone J97PI15): 1-2
Change in 460/530 ratio in the indicated clone by the following activator ([1]; clone J97PI17): 4-5
Change in 460/530 ratio in the indicated clone by the following activator ([1]; clone J97PI18): 1-2
Change in 460/530 ratio in the indicated clone by the following activator ([1]; clone J97PI19): 2-3
Change in 460/530 ratio in the indicated clone by the following activator ([1]; clone J97PI20): 1-2
Change in 460/530 ratio in the indicated clone by the following activator ([1]; clone J97PI21): 2-3
Change in 460/530 ratio in the indicated clone by the following activator ([1]; clone J97PI22): 5-6
Change in 460/530 ratio in the indicated clone by the following activator ([1]; clone J97PI23): 4-5
Change in 460/530 ratio in the indicated clone by the following activator ([1]; clone J97PI24): 3-4
Change in 460/530 ratio in the indicated clone by the following activator ([1]; clone J97PI116): 2-3
Change in 460/530 ratio in the indicated clone by the following activator ([1]; clone J325B5): 7
Change in 460/530 ratio in the indicated clone by the following activator ([1]; clone J325B11): 9
Change in 460/530 ratio in the indicated clone by the following activator ([1]; clone J325E1): 8
Change in 460/530 ratio in the indicated clone by the following activator ([1]; clone J325E3): 7
Change in 460/530 ratio in the indicated clone by the following activator ([1]; clone J325E6): 11
Change in 460/530 ratio in the indicated clone by the following activator ([1]; clone J325G4): 3-4
Change in 460/530 ratio in the indicated clone by the following activator ([1]; clone J326C9): 4-5
Change in 460/530 ratio in the indicated clone by the following activator ([1]; clone J326D4): 10
Change in 460/530 ratio in the indicated clone by the following activator ([1]; clone J326D7): 10
Change in 460/530 ratio in the indicated clone by the following activator ([1]; clone J326F7): 10
Change in 460/530 ratio in the indicated clone by the following activator ([1]; clone J326H4): 10
Change in 460/530 ratio in the indicated clone by the following activator ([1]; clone J389PM2): 4-5
Change in 460/530 ratio in the indicated clone by the following activator ([1]; clone J389PM3): 3
Change in 460/530 ratio in the indicated clone by the following activator ([1]; clone J389PM5): 4-5
Change in 460/530 ratio in the indicated clone by the following activator ([1]; clone J389PM7): 1-2
Change in 460/530 ratio in the indicated clone by the following activator ([1]; clone J389PM8): 2-3
Change in 460/530 ratio in the indicated clone by the following activator ([1]; clone J389PT4): 15
Change in 460/530 ratio in the indicated clone by the following activator ([1]; clone J389PTt): 5-6
Change in 460/530 ratio in the indicated clone by the following activator ([1]; clone J389TI1): 1-2
Change in 460/530 ratio in the indicated clone by the following activator ([1]; clone J389TI4): 0
Relative Beta-Lactamase Activity of the Clone by the Indicated Stimulus After 24 hours (% of maximum activated stimuli) ([2]; clone J32-6D4): 80%
Relative Beta-Lactamase Activity of the Clone by the Indicated Stimulus After 24 hours (% of maximum activated stimuli) ([2]; clone J83 97-PPTR2 (repressed paradigm)): 67%
Relative Beta-Lactamase Activity of the Clone by the Indicated Stimulus After 24 hours (% of maximum activated stimuli) ([2]; clone J83-PI9): 60%
Relative Beta-Lactamase Activity of the Clone by the Indicated Stimulus After 24 hours (% of maximum activated stimuli) ([2]; clone J83-PTI8): 60%
Relative Beta-Lactamase Activity of the Clone by the Indicated Stimulus After 24 hours (% of maximum activated stimuli) ([2]; clone J389-PTI4): 85%
Relative Beta-Lactamase Activity of the Clone by the Indicated Stimulus After 24 hours (% of maximum activated stimuli) [3]: 30%
Relative expression of beta-lactamase in cells exposed to the indicated stimuli [4]: 12
